The record followed here is US5478726A, “Mycobacterial recombinants and peptides” (priority 1992, dated 1995).

Data set [1] concerns T cell clone A7JM. The following applies: A7JM against macrophages pulsed with the antigen; 7 days.
The test system of data set [2] is T cell clone K8AH. The following applies: K8AH against macrophages pulsed with the antigen; 7 days.
The subject of data set [3] is serum from human patients known to be infected with M. tuberculosis. Format: binding. The following applies: Western blot; preliminary studies. On the technique in general: Immunoblotting shows a protein as a band on a membrane.

Consider `CC[C@H](C)[C@H](NC(=O)[C@H](Cc1ccc(O)cc1)NC(=O)[C@@H]1CCCN1C(=O)[C@H](CC(=O)O)NC(=O)[C@H](CCC(=O)O)NC(=O)[C@H](CC(C)C)NC(=O)[C@@H](NC(=O)[C@H](C)N)C(C)C)C(=O)N[C@@H](CC(C)C)C(=O)N[C@@H](CC(C)C)C(=O)N[C@H](C(=O)N[C@@H](CO)C(=O)N[C@@H](CO)C(=O)N[C@@H](CCCCN)C(=O)N[C@H](C(=O)O)C(C)C)C(C)C` [Peptide 22, A V L E D P Y I L L V S S K V], for which, in data set [1], the Cytotoxicity is recorded as 82.7 ± 10 percentages.
Take `CC[C@H](C)[C@H](NC(=O)[C@@H](NC(=O)[C@H](CCCCN)NC(=O)[C@H](CCC(=O)O)NC(=O)[C@H](CC(C)C)NC(=O)[C@H](CC(C)C)NC(=O)[C@@H]1CCCN1C(=O)[C@H](CC(C)C)NC(=O)[C@@H](N)CC(C)C)C(C)C)C(=O)NCC(=O)N[C@@H](C)C(=O)NCC(=O)N[C@@H](CCCCN)C(=O)N1CCC[C@H]1C(=O)N[C@@H](CC(C)C)C(=O)O` [Peptide 24, L L P L L E K V I G A G K P L]: the Cytotoxicity in data set [2] is 86.5 ± 0.6 percentages.
Turning to “purified recombinant 65KD protein: purified recombinant 65KD (540 amino acid residue) protein of M. tuberculosis”, the “Immunoreaction with antisera from infected patients” value in data set [3] is listed as “immunoreacted”.
